Tests used:
Rattus norvegicus [1] = experiment: In vivo immunosuppressive effect of compound was determined on host versus graft reaction (HvGR) using popliteal lymph node gain assay in rat; type: functional; conditions: read-out: ID50 (the source's name)
Rattus norvegicus [2] = experiment: Decrease in number of T cells in peripheral blood after administration for 4 days in rat; type: functional; conditions: T-cell, 96 h, read-out: ID50 (the source's name)

SMILES	ED50 (Rattus norvegicus [1]) [mg/kg]	ED50 (Rattus norvegicus [2]) [mg/kg]
CCCCCCCCc1ccc(CCC(N)(CO)CO)cc1.Cl [FINGOLIMOD HYDROCHLORIDE]	0.2	0.024
C/C=C/C[C@@H](C)[C@@H](O)[C@H]1C(=O)N[C@@H](CC)C(=O)N(C)CC(=O)N(C)[C@@H](CC(C)C)C(=O)N[C@@H](C(C)C)C(=O)N(C)[C@@H](CC(C)C)C(=O)N[C@@H](C)C(=O)N[C@H](C)C(=O)N(C)[C@@H](CC(C)C)C(=O)N(C)[C@@H](CC(C)C)C(=O)N(C)[C@@H](C(C)C)C(=O)N1C [CYCLOSPORINE]	2.8	> 30
CCCCCCCOc1ccc(CCC(N)(CO)C(C)C)cc1 (stereo unspecified)	2.7	4.5
CCCCCCCOc1ccc(CC[C@](C)(N)CO)cc1	> 1	> 1
CCCCCCCOc1ccc(CC[C@](N)(CO)CCC)cc1	> 10	> 10
CCCCCCCOc1ccc(CCC(N)(CO)CCC)cc1 (stereo unspecified)	3.1	7.3
CCCCCCCOc1ccc(CCC(N)(CC)CO)cc1 (stereo unspecified)	0.059	0.044
CCCCCCCOc1ccc(CC[C@@](C)(N)CO)cc1	0.088	0.0092
CCCCCCCOc1ccc(CCC(N)(CO)CO)cc1	0.049	0.014
CCCCCCCCc1ccc(CCC(N)CO)cc1.Cl (stereo unspecified)	> 10	> 10
CCCCCCCOc1ccc(CCC(C)(N)CO)cc1 (stereo unspecified)	0.031	0.061
CCCCCCCOc1ccc(CC[C@@](N)(CO)CCC)cc1	0.63	4.4
CCCCCCCOc1ccc(CCC(N)(CO)CCCC)cc1 (stereo unspecified)	> 10	> 10
